From patent publication US20120220562A1, “Anti-Viral Compounds” (ABBOTT LABAORATORIES, priority 2011, published 2012)

What was measured:
[1] = system: HCV 1b-Con1 replicon; test: HCV 1b-Con1 replicon assay in the presence of 5% FBS; type: cell-based; conditions: Hepatitis C virus
[2] = system: HCV 2a, 2b, 3a and 4a replicons; test: HCV 2a, 2b, 3a and 4a replicon assays in the absence of human plasma; type: cell-based
Method: The inhibitory effects of the compounds of the invention on HCV replication can be determined by measuring activity of the luciferase reporter gene. For example, replicon-containing cells can be seeded into 96 well plates at a density of 5000 cells per well in 100 μl DMEM containing 5% FBS. The following day compounds can be diluted in dimethyl sulfoxide (DMSO) to generate a 200× stock in a series of eight half-log dilutions. The dilution series can then be further diluted 100-fold in the medium containing 5% FBS. Medium with the inhibitor is added to the overnight cell culture plates already containing 100 μl of DMEM with 5% FBS. In assays measuring inhibitory activity in the presence of human plasma, the medium from the overnight cell culture plates can be replaced with DMEM containing 40% human plasma and 5% FBS. […] Luciferin solution (100 μl, Promega) can be added to each well, and luciferase activity can be measured with a Victor II luminometer (Perkin-Elmer). The percent inhibition of HCV RNA replication can be calculated for each compound concentration and the EC50 value can be calculated using nonlinear regression curve fitting to the 4-parameter logistic equation and GraphPal Prism 4 software.

[3] = AUC value (pharmacokinetics); conditions: in vivo

Row | Structure (SMILES) | EC50 [1] [nM] | EC50 values, fold less than those of Example 4.25 [2] | AUC value, fold greater than that of Example 109 of the '301 application [3] | AUC value, fold greater than that of Example 2.9 [3]
1 | COC(=O)N[C@H](C(=O)N1CCC[C@H]1c1nc2cc([C@H]3CC[C@H](c4ccc5[nH]c([C@@H]6CCCN6C(=O)[C@@H](NC(=O)OC)C(C)C)nc5c4)N3c3ccc(N4CCC(c5ccccc5)CC4)c(F)c3)ccc2[nH]1)C(C)C [Example 3.20, methyl {(2S)-1-[(2S)-2-{5-[(2R,5R)-1-[3-fluoro-4-(4-phenylpiperidin-1-yl)phenyl]-5-{2-[(2S)-1-{(2S)-2-[(methoxycarbonyl)amino]-3-methylbutanoyl}pyrrolidin-2-yl]-1H-benzimidazol-5-yl}pyrrolidin-2-yl]-1H-benzimidazol-2-yl}pyrrolidin-1-yl]-3-methyl-1-oxobutan-2-yl}carbamate] | < 0.1 | at least 15 fold |  | 
2 | COC(=O)N[C@H](C(=O)N1CCC[C@H]1c1nc2cc([C@H]3CC[C@H](c4cc5[nH]c([C@@H]6CCCN6C(=O)[C@@H](NC(=O)OC)C(C)C)nc5cc4F)N3c3ccc(C(C)(C)C)cc3)c(F)cc2[nH]1)C(C)C [Example 6.1, methyl {(2S)-1-[(2S)-2-{5-[(2R,5R)-1-(4-tert-butylphenyl)-5-{5-fluoro-2-[(2S)-1-{(2S)-2-[(methoxycarbonyl)amino]-3-methylbutanoyl}pyrrolidin-2-yl]-1H-benzimidazol-6-yl}pyrrolidin-2-yl]-6-fluoro-1H-benzimidazol-2-yl}pyrrolidin-1-yl]-3-methyl-1-oxobutan-2-yl}carbamate] | < 0.1 |  | about 9 fold | 
3 | COC(=O)N[C@H](C(=O)N1CCC[C@H]1c1nc2cc([C@H]3CC[C@H](c4ccc5[nH]c([C@@H]6CCCN6C(=O)[C@@H](NC(=O)OC)C(C)C)nc5c4)N3c3cc(F)c(N4CCC(c5ccccc5)CC4)c(F)c3)ccc2[nH]1)C(C)C [Example 5.1, methyl {(2S)-1-[(2S)-2-{5-[(2R,5R)-1-[3,5-difluoro-4-(4-phenylpiperidin-1-yl)phenyl]-5-{2-[(2S)-1-{(2S)-2-[(methoxycarbonyl)amino]-3-methylbutanoyl}pyrrolidin-2-yl]-1H-benzimidazol-5-yl}pyrrolidin-2-yl]-1H-benzimidazol-2-yl}pyrrolidin-1-yl]-3-methyl-1-oxobutan-2-yl}carbamate] | < 0.1 | at least 50 fold |  | about 30 fold
4 | COC(=O)N[C@H](C(=O)N1CCC[C@H]1c1nc2ccc([C@H]3CC[C@H](c4ccc5nc([C@@H]6CCCN6C(=O)[C@@H](NC(=O)OC)C(C)C)[nH]c5c4)N3c3ccc(N(C(C)=O)C(C)(C)C)c(F)c3)cc2[nH]1)C(C)C [Example 2.8, methyl {(2S)-1-[(2S)-2-{6-[(2R,5R)-1-{4-[acetyl(tert-butyl)amino]-3-fluorophenyl}-5-{2-[(2S)-1-{(2S)-2-[(methoxycarbonyl)amino]-3-methylbutanoyl}pyrrolidin-2-yl]-1H-benzimidazol-6-yl}pyrrolidin-2-yl]-1H-benzimidazol-2-yl}pyrrolidin-1-yl]-3-methyl-1-oxobutan-2-yl}carbamate] | 0.1 to 1 |  |  | 
5 | COC(=O)N[C@H](C(=O)N1CCC[C@H]1c1nc2cc([C@H]3CC[C@@H](c4ccc5[nH]c([C@@H]6CCCN6C(=O)[C@@H](NC(=O)OC)C(C)C)nc5c4)N3c3cc(F)c(C(F)(F)F)cc3F)ccc2[nH]1)C(C)C [Example 1.3, methyl {(2S)-1-[(2S)-2-{5-[(2S,5R)-1-[2,5-difluoro-4-(trifluoromethyl)phenyl]-5-{2-[(2S)-1-{(2S)-2-[(methoxycarbonyl)amino]-3-methylbutanoyl}pyrrolidin-2-yl]-1H-benzimidazol-5-yl}pyrrolidin-2-yl]-1H-benzimidazol-2-yl}pyrrolidin-1-yl]-3-methyl-1-oxobutan-2-yl}carbamate] | < 0.1 |  |  | 
6 | COC(=O)N[C@@H](C(=O)N1c2ccccc2C[C@H]1c1nc2cc([C@H]3CC[C@H](c4ccc5[nH]c([C@@H]6Cc7ccccc7N6C(=O)[C@H](NC(=O)OC)C(C)C)nc5c4)N3c3cc(F)c(N4CCCCC4)c(F)c3)ccc2[nH]1)C(C)C [Example 3.25, methyl {(2R)-1-[(2S)-2-{5-[(2R,5R)-1-[3,5-difluoro-4-(piperidin-1-yl)phenyl]-5-{2-[(2S)-1-{(2R)-2-[(methoxycarbonyl)amino]-3-methylbutanoyl}-2,3-dihydro-1H-indol-2-yl]-1H-benzimidazol-5-yl}pyrrolidin-2-yl]-1H-benzimidazol-2-yl}-2,3-dihydro-1H-indol-1-yl]-3-methyl-1-oxobutan-2-yl}carbamate] | < 0.1 |  |  | 
7 | COC(=O)N[C@H](C(=O)N1CCC[C@H]1c1nc2cc([C@H]3CC[C@H](c4ccc5[nH]c([C@@H]6CCCN6C(=O)[C@@H](NC(=O)OC)C(C)C)nc5c4)N3c3cc(F)c(N4CCC(C)(C)CC4)c(F)c3)ccc2[nH]1)C(C)C [Example 5.10, methyl {(2S)-1-[(2S)-2-{5-[(2R,5R)-1-[4-(4,4-dimethylpiperidin-1-yl)-3,5-difluorophenyl]-5-{2-[(2S)-1-{(2S)-2-[(methoxycarbonyl)amino]-3-methylbutanoyl}pyrrolidin-2-yl]-1H-benzimidazol-5-yl}pyrrolidin-2-yl]-1H-benzimidazol-2-yl}pyrrolidin-1-yl]-3-methyl-1-oxobutan-2-yl}carbamate] | < 0.1 |  |  | 
